Values quoted from earlier work as cited in US8960128B2, “Topical anesthetic composition” (Animal Ethics Pty Ltd, priority 2005, dated 2015).

What was measured:
[1] = typically up to about; depending on the method of administration
[2] = sheep, topically applied

CCCCN1CCCCC1C(=O)Nc1c(C)cccc1C (centres unmarked) [bupivacaine]
duration of anesthesia [1]: 6 to 12 h

CCN(CC)CC(=O)Nc1c(C)cccc1C [lignocaine]
total dose that should not be exceeded [2]: ≤ 50 mg/kg
